The text below walks through data of a melting point compilation (Tetko et al.; mined from patent text by program, amines drawn as free bases though some values may be those of a salt).

The term melting point denotes the temperature of the solid-liquid transition.

Turning to `Cc1c2c(cc3ccc(O)cc13)-c1ccc(O)cc1CO2`, the melting point is 224 to 226 °C. Under `COC(=O)c1nc2ccc(CO)cc2cc1C` stands 84.2 °C; under `CCn1cc(C(C)=O)c(=O)c2ccc(-c3ccncc3)cc21`, 231 to 233 °C; under `COC(=O)C1CCC2C3CCC4CC5OC5CC4(C)C3C(=O)CC12C` (configuration not stated), 140 to 145 °C.

`Nc1cccc(-c2cncc(OC[C@@H]3CCN3)c2)c1` had a melting point of 85 to 87 °C.

In turn, `O=C(NCCc1ccccc1Cl)c1c(Cl)ccc2nc(N3CC[C@H](NCCO)C3)ccc12` came in with a melting point of 170 to 172 °C. For `CC(C)SN1N=C(c2ccccc2)C(SC(C)C)(SC(C)C)C1=O`, the melting point lay within 66 to 67 °C. In turn, `Cn1nc(-c2ccc(F)cc2)c(-c2ccncc2)c1CCCc1ccccc1` returned a melting point of 83 to 87 °C. Consider `Cc1[nH]c(-c2ccccc2)c(N)c1C(=O)C(C)C`, for which the melting point lay in the range of 180 to 183 °C. For the compound `COc1ccc(N2CCN(c3ccc(N)cc3)CC2)cn1`, the melting point worked out at 111 °C.

For `COc1cc(C(=O)C(=O)N2C3CCCC2C(=O)N(CCCCc2ccccc2)C3=O)cc(OC)c1OC`, the melting point is 101 to 103 °C. As to `COc1ccc(CC(C)=NO)cc1S(N)(=O)=O`, the melting point lay within 193 to 194 °C.

The compound `CCC(C)(C)c1cc(-c2cc(F)cc(C=C3SC(N4CCOCC4)=NC3=O)c2)ccc1O` displayed a melting point of 210 to 212 °C.

With `C#CCOc1c(OC)cc(/C=C/C(=O)/C=C/c2cc(OC)c(OC)c(OC)c2)cc1OC`, the melting point was in the range of 118 to 120 °C. As for `COc1ccc(CNC(=O)c2ccccc2)cc1OC`, the melting point was in the range of 101 to 102 °C. As for `N#CC=Cc1ccc(C=Cc2ccc(C=CC#N)cc2)cc1`, the melting point lay within 219 to 221 °C. `CC(=O)c1ncn2c1CN=C(c1ccccc1Cl)c1cc(Cl)ccc1-2` returned a melting point of 214 to 216 °C. For the compound `O=C(c1ccc(O)cc1)c1ccc([N+](=O)[O-])cc1`, the melting point came to 196 °C. The compound `CCc1nn2c(-c3ccc(OC)cc3Cl)cccc2c1N(CCF)CCOC` came in with a melting point of 45.8 to 52.8 °C. In turn, `Fc1ccc(-c2ncnc(C(F)(F)F)c2Cl)c(F)c1` yielded a melting point of 61 to 63 °C.

Compound `O=C(NC1(CO)NCC(O)C(O)C1O)c1ccccc1` (configuration not stated) returned a melting point of 154 to 156 °C. Compound `Nc1cnn(CCO)c1N` came in with a melting point of 158 to 160 °C. Under `COC(=O)[C@@](C#N)(Cc1ccccn1)[C@H](c1ccccc1OC)c1cccc2ccccc12` (relative stereo) stands 194 to 196 °C. Under `CC(=O)Oc1c(Sc2ccccc2)sc2ccccc12` stands 88 to 90 °C; under `Cc1ccc(-c2ccc(S(=O)(=O)N3CCN(C(=O)C4CCN(c5ccncc5)CC4)CC3)cc2)cc1`, 213 to 217 °C.

As for `Cn1nnc2sccc2c1=O`, the melting point was 104 to 108 °C. Turning to `COC(=O)c1[nH]c(C)c2c1CN=C(c1ccccc1F)c1cc(Cl)ccc1-2`, the melting point lay in the range of 228 to 231 °C. Compound `CCN1C(=O)C(C)(C)C(=O)N(C)c2cc(CN(CCn3cc(C)c4oc(C)cc4c3=O)Cc3cc(C)n(C)n3)ccc21` came in with a melting point of 113 to 116 °C. On to `O=C1c2ccc(S(=O)(=O)c3ccccc3)cc2C(=O)c2cc3ccccc3cc21`, for which the melting point was above 260 °C.

`CCOC(=O)N1CCC(n2ccc3ccccc32)CC1`: the melting point was 127 °C. `Cc1cc2[nH]cc(CSCC(=O)N3CC=C(c4ccccc4)CC3)c2cc1C` came in with a melting point of 167 to 169 °C. Compound `CC(C)n1nc(-c2sc(NC(=O)c3cccc(C(F)(F)F)c3)nc2-c2ccccc2)ccc1=O` returned a melting point of 237 to 238 °C. The compound `O=C1c2ccccc2C(=O)N1CCSCc1nccc(NC(=S)NCC(F)(F)F)n1` gave a melting point of 178 to 179 °C. For the compound `COC(=O)c1ccc(OC)c(NC(=N)c2ccc(F)cc2F)c1`, the melting point was found to be 120 °C. For `Cc1cc2c(c(Sc3ccc(Cl)cc3)n1)C(=O)N(CC1Cc3c(sc(N)c3C(=O)OC(C)(C)C)CO1)C2=O` (configuration not stated), the melting point fell in the range of 118 to 119 °C. Compound `COc1ccc(N2CCN(CCC3CN(C)C(=O)O3)CC2)cc1OC` (configuration not stated) had a melting point of 90 to 92 °C. For the compound `CC(C)(C)Nc1c(NCc2ccc(F)cc2)c(=O)c1=O`, the melting point is 296 to 298 °C.

`COc1cc(COc2nn(C)cc2C(=O)N(C)OC)ccc1OCc1nc(-c2ccccc2)oc1C`: the melting point lay within 138 to 139 °C.

On to `COc1cccc2sc(-c3ccc(C(=O)O)cc3)nc12`, for which the melting point fell in the range of 289 to 291 °C.

In turn, `CCCc1nc2c(N)nc3cccnc3c2n1Cc1cc(-c2ccc(F)cc2)no1` yielded a melting point of 238 to 239 °C. Turning to `Cc1c(C)c2c(c(C)c1N)CC(C)(CN1CCN(c3ccccc3)CC1)O2` (configuration not stated), the melting point was in the range of 94 to 95 °C. In turn, `CCc1c(Oc2cnc(N)nc2N)cc(C)c2sccc12` gave a melting point of 181 °C. For `C=CCCC(=O)N1CCc2nnc(N(C)N)cc2C1`, the melting point is 128 to 130 °C. `COc1cc(Nc2c(C#N)cnc3cc(/C=C/c4ccncc4)ccc23)c(Cl)cc1Cl` returned a melting point of 218 to 219 °C. `O=C(O)CC1(O)CCC(N2CCC(Nc3ccncc3)CC2)CC1` (configuration not stated) had a melting point of 261 °C. Under `COc1ccc(C2c3c(C)c(N4CCN(c5ccc(OC)cc5)CC4)c(C)c(C)c3OC2(C)C)cc1` (configuration not stated) stands 205 to 207 °C. For `O=C1O[C@@H](CO)CN1c1ccc2ncccc2c1`, the melting point stood at 165 °C. `Cc1ccc(-c2cc(NCCNc3cc(-c4cccs4)[nH]n3)n[nH]2)cc1` came in with a melting point of 148 °C. Compound `CC(=O)OCC1OC(n2cc(Cc3ccc4occc4c3)c3c(Cl)cccc32)C(OC(C)=O)C(OC(C)=O)C1OC(C)=O` (configuration not stated) returned a melting point of 186 to 188 °C. `C=Cc1c(C)c(NC(=O)CC(C)(C)C)c(C)c2c1OCC2c1ccc(C(C)C)cc1` (configuration not stated) yielded a melting point of 171 to 172 °C.

Compound `COc1ccc(N=Nc2ccc(O)c(C(=O)Nc3ccc(OC)c(-c4n[nH]c5cc(C)nn45)c3)c2)cc1` came in with a melting point of 295 to 296 °C. For `CSc1nc(Cl)c(-c2ccc(C)cc2)c(NS(=O)(=O)c2ccc(C(C)(C)C)cc2)n1`, the melting point was 178 to 182 °C.

In the case of `Cc1c(C#Cc2ccc(C(F)(F)F)cc2)ccc(N)c1C#N`, the melting point was 136 to 138 °C. Under `Clc1ccc(C=NCCN=Cc2ccc(Cl)nc2)cn1` stands 170 °C; under `CC(C)(C)OC(=O)N1CCC2(CC1)CSC1=C(O2)c2cc(-c3ccccc3C(F)(F)F)ccc2C(=O)C1=O`, 223 to 225 °C; under `COc1cc(Cl)nnc1NS(=O)(=O)c1cccc(Cl)c1Cl`, 226 to 227 °C.

The compound `COc1cccc(C(=O)c2sc3cc(OC)ccc3c2-c2ccccc2)c1` gave a melting point of 101 to 103 °C. Regarding `Cn1c(C=O)cc2cccc(F)c21`, the melting point was 61 to 63 °C. As to `CCOC(=O)N(CC(=O)O)C(=O)c1c(Cl)ccc2c(C(F)(F)F)c(OC)ccc12`, the melting point lay within 144 to 146 °C.

With `CC(C)(C)CC(NC(=O)c1ccccc1)Nc1c(Nc2cccnc2Cl)c(=O)c1=O` (configuration not stated), the melting point lay in the range of 259 to 260 °C.

As to `O=C(O)C1c2ccccc2N=C(N2CCCCC2)N1c1ccccc1` (configuration not stated), the melting point was 238 °C. With `CCN(CC)c1cccc2nc3n(c12)C=CCCN3c1ccc(Cl)cc1Cl`, the melting point fell in the range of 105 to 106 °C.
